Source: patent US20110183978A1, “Phenylpyri(mi)dinylazoles” (Bayer CropScience AG, priority 2009, published 2011)
Where two headings read alike, the source gives them in different places.

Assays:
Leptosphaeria nodorum = experiment: Example Q: in vivo test on Leptosphaeria nodorum (glume blotch in wheat/protective); conditions: Parastagonospora nodorum, 192 h, wheat, protective, assessment 8 days after inoculation, read-out: % Wirkungsgrad
Outline: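 Protective test: young wheat plants sprayed with compound formulated in N,N-dimethylacetamide plus alkylaryl polyglycol ether emulsifier, diluted in water to the stated dose. After drying, plants inoculated with L. nodorum spore suspension; disease assessed 8 days post-inoculation.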

Alternaria brassicae = experiment: Example C: in vivo test on Alternaria brassicae (leaf spot disease on radishes); conditions: 500 ppm; radish plants sprayed 24 hours before inoculation; scored after 6-7 days
Description: In Vivo Test on Alternaria Brassicae (Leaf Spot Disease on Radishes) An aqueous suspension of the active substance was prepared by homogenization of a mixture of acetone/Tween/dimethyl sulphoxide and subsequent dilution with water to the desired concentration. Radish plants (variety: Pernot) are sown in cultivation dishes on a peat-pozzolanic earth substrate (50/50) at 18-20° C. and sprayed at the cotyledon stage with the aqueous suspension described above. As a control, plants are sprayed with an aqueous solution with no active substance. After 24 hours, the plants are inoculated by spraying with an aqueous suspension of Alternaria brassicae spores (40,000 spores per ml). The spores are derived from a 12 to 13 day-old culture. The inoculated radish plants are incubated for 6-7 days at ca. 18° C. in a humid atmosphere. After 6-7 days they are scored in comparison with the control plants.

Aspergillus parasiticus = experiment: microbe, parasite or virus in culture; type: cell-based; conditions: 168 h
Alternaria solani = experiment: Example M: in vivo test on Alternaria solani (leaf blotch disease/tomato/protective); conditions: 168 h, tomato, protective, 500 ppm active substance, assessed 7 days after inoculation, read-out: % Wirkungsgrad (activity level)
Outline: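 Alternaria solani infection on tomato scored 7 days post-inoculation. Before inoculation, young plants received a protective spray at the stated application dose; formulation was compound mixed with N,N-dimethylformamide and emulsifier, water-diluted.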

Rhizoctonia solani = experiment: Example W: in vivo test on Rhizoctonia solani (sheath blight in rice/protective); conditions: 96 h, rice, protective, 250 ppm active substance, assessed 4 days after inoculation, read-out: % Activity level
Outline: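 Young rice plants sprayed protectively with compound in acetone/alkylaryl polyglycol ether emulsion diluted in water at stated dosage. Inoculated with R. solani hyphae one day later; disease assessed 4 days post-inoculation.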

Peronospora parasitica = experiment: Example A: in vivo test on Peronospora parasitica (downy mildew on white cabbage); conditions: Hyaloperonospora parasitica, 120 h, cabbage plants sprayed 24 hours before inoculation, scored after 5 days, read-out: % Wirkungsgrad
Outline: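 Protective spray test: inoculation with 50,000 spores/ml P. parasitica suspension followed 24 h after compound application to cotyledon-stage cabbage (variety Eminence). Plants kept moist at about 20 °C for 5 days and then rated versus controls sprayed without active substance.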

Puccinia recondita = experiment: Example F: in vivo test on Puccinia recondita (wheat brown rust); conditions: 240 h, wheat plants sprayed 24 hours before inoculation, scored after 10 days, read-out: % Wirkungsgrad
Description: In Vivo Test on Puccinia Recondita (Wheat Brown Rust) An aqueous suspension of the active substance was prepared by homogenization of a mixture of acetone/Tween/dimethyl sulphoxide and subsequent dilution with water to the desired concentration. Wheat plants (variety: Scipion) are sown in cultivation dishes on a peat-pozzolanic earth substrate (50/50) at 12° C. and sprayed at the first-leaf stage (10 cm size) with the aqueous suspension described above. As a control, plants are sprayed with an aqueous solution with no active substance. After 24 hours the plants are inoculated by spraying with an aqueous suspension of Puccinia recondita spores (100,000 spores per ml). The spores are derived from a 10 day-old infected wheat crop and are suspended in water with 2.5 ml/l Tween. […] After 10 days they are scored in comparison with the control plants.

Phakopsora pachyrhizi = experiment: Example Z: in vivo test on Phakopsora pachyrhizi (soya bean rust/protective); conditions: soya bean rust, protective, 250 ppm active substance, assessed 11 days after inoculation
physchem = conditions: LogPA (logP of the stated pure compound or, in a mixture, of the main isomer, 1-substituted 3-aryl-1H-pyrazole)
Fusarium graminearum [1] = experiment: microbe, parasite or virus in culture; type: cell-based
Fusarium graminearum [2] = experiment: whole plant or invertebrate; type: in vivo; conditions: in Hordeum vulgare, 120 h, read-out: % Wirkungsgrad (activity level)
Sphaerotheca fuliginea = experiment: Example L: in vivo test on Sphaerotheca fuliginea (powdery mildew on cucumber/protective); conditions: Podosphaera fuliginea, 168 h, cucumber, protective, assessment 7 days after inoculation, read-out: % Wirkungsgrad
Outline: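 Young cucumber plants sprayed at stated dosage with compound in DMF/alkylaryl polyglycol ether emulsifier diluted in water; inoculated with S. fuliginea spores one day later. Kept in greenhouse at 70% relative humidity, 23° C; protective activity assessed 7 days after inoculation.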

[3] = 50 μM, 7 days at 20° C., read-out: Inhibition der Aflatoxin produktion bei 50 μM
[4] = read-out: % Inhibition des Pilzwachstums bei 50 μM
[5] = 72 h, read-out: % Inhibition des Pilzwachstums bei 50 μM
[6] = 168 h, read-out: % Inhibition der DON/AcDON produktion bei 50 μM

In the case of CC(C)C(=O)Nc1cc(-c2cn(C(C)C)nc2-c2ccc(F)cc2)ccn1 [Compound 84], the pest or weed control at 1000 ppm (Leptosphaeria nodorum) is reported as 100%, the “% Activity level” value (Alternaria brassicae) is reported as 75% and the inhibition at 50 µM (Aspergillus parasiticus; [3]) is reported as 100%. The inhibition at 50 µM (Aspergillus parasiticus; [4]) was 98%, the pest or weed control at 500 ppm (Alternaria solani) was 95% and the pest or weed control at 250 ppm (Rhizoctonia solani) was 100%. For the same molecule, the pest or weed control at 500 ppm (Peronospora parasitica) was 100%, the pest or weed control at 500 ppm (Puccinia recondita) was 78% and the “% Activity level” value (Phakopsora pachyrhizi) was 98%. It also gave a chromatographic logP (physchem) of 2.5, an inhibition at 50 µM (Fusarium graminearum [1]; [5]) of 92% and an inhibition at 50 µM (Fusarium graminearum [1]; [6]) of 99%. It also gave a pest or weed control at 1000 ppm (Fusarium graminearum [2]) of 100% and a pest or weed control at 500 ppm (Sphaerotheca fuliginea) of 100%.

For CC(C)n1cc(-c2ccnc(NC(=O)C3CC3)c2)c(-c2ccc(F)cc2)n1 [Compound 86], the pest or weed control at 1000 ppm (Leptosphaeria nodorum) was 100%, the “% Activity level” value (Alternaria brassicae) was 75% and the inhibition at 50 µM (Aspergillus parasiticus; [3]) was 100%. For the same molecule, the inhibition at 50 µM (Aspergillus parasiticus; [4]) was 97%, the pest or weed control at 250 ppm (Rhizoctonia solani) was 100% and the pest or weed control at 500 ppm (Peronospora parasitica) was 100%. The chromatographic logP (physchem) was 2.07, the inhibition at 50 µM (Fusarium graminearum [1]; [5]) was 94% and the inhibition at 50 µM (Fusarium graminearum [1]; [6]) was 98%. The pest or weed control at 1000 ppm (Fusarium graminearum [2]) was 100% and the pest or weed control at 500 ppm (Sphaerotheca fuliginea) was 100%.

With CC(C)Cn1cc(-c2ccncc2)c(-c2ccc(F)cc2)n1 [Compound 1] the pest or weed control at 1000 ppm (Leptosphaeria nodorum) was 100%, the “% Activity level” value (Alternaria brassicae) was 94% and the pest or weed control at 250 ppm (Rhizoctonia solani) was 100%. The pest or weed control at 500 ppm (Peronospora parasitica) was 100%, the pest or weed control at 500 ppm (Puccinia recondita) was 89% and the “% Activity level” value (Phakopsora pachyrhizi) was 91%. The chromatographic logP (physchem) was 1.63 and the pest or weed control at 1000 ppm (Fusarium graminearum [2]) was 100%.

With CCC(=O)Nc1cc(-c2cn(C(C)C)nc2-c2ccc(F)cc2)ccn1 [Compound 85] the pest or weed control at 1000 ppm (Leptosphaeria nodorum) was 100%, the inhibition at 50 µM (Aspergillus parasiticus; [3]) was 100% and the inhibition at 50 µM (Aspergillus parasiticus; [4]) was 98%. It also gave a pest or weed control at 500 ppm (Alternaria solani) of 100%, a pest or weed control at 250 ppm (Rhizoctonia solani) of 97% and a pest or weed control at 500 ppm (Peronospora parasitica) of 100%. For the same molecule, the chromatographic logP (physchem) was 2.15, the inhibition at 50 µM (Fusarium graminearum [1]; [5]) was 100% and the inhibition at 50 µM (Fusarium graminearum [1]; [6]) was 99%. For the same molecule, the pest or weed control at 1000 ppm (Fusarium graminearum [2]) was 100% and the pest or weed control at 500 ppm (Sphaerotheca fuliginea) was 100%.
